Values of other authors as cited in US20220395497A1, “Cancer Treatment Using Camptothecin Derivatives” (priority 2019, published 2022).
Where two headings read alike, the source gives them in different places. Marks after values point to notes of the source that are not given here.

Tests used:
reGBM patients [1] = conditions: cited from earlier work
[2] = system: Colorectal cancer patients; conditions: single agent, bolus, N = 223; cited from earlier work
[3] = system: Colorectal cancer patients; conditions: w/5FU, LV, bolus, N = 225; cited from earlier work
[4] = system: Metastatic Colorectal cancer patients; conditions: previously treated, cited from earlier work
[5] = system: Recurrent Colorectal cancer patients; conditions: N = 316 across 2 studies, cited from earlier work
reGBM patients [6] = conditions: single agent vs Enzastaurin, N = 92, Treated = 84; cited from earlier work
reGBM patients [7] = conditions: single agent/placebo, N = 64; cited from earlier work
reGBM patients [8] = conditions: cited from earlier work; for Diarrhoea Grades 3-5 / Neutropenia Grades 3-4 / Thrombocytopenia Grades 3-4: reGBM, single agent
[9] = in vivo; cited from earlier work
GBM/AA patients = conditions: single agent Phase II, N = 20 in heavily pretreated bev failures; cited from earlier work
BCBM patients = conditions: Phase 3 BEACON Study, N = 425; cited from earlier work
[10] = system: cells in the S phase of the cell cycle; conditions: in vitro; cited from earlier work

## CC[C@@]1(O)C(=O)OCc2c1cc1n(c2=O)Cc2c-1nc1ccccc1c2CC[Si](C)(C)C [Karenitecin]
reGBM patients [1]; Phase I trial
  neutropenia and thrombocytopenia, patients: 13-23%
reGBM patients [1]; reGBM, single agent, N = 30
  Diarrhoea Grades 3-5: 3%
  Neutropenia Grades 3-4: 23%
  Thrombocytopenia Grades 3-4: 13%

## CCc1c2c(nc3ccc(OC(=O)N4CCC(N5CCCCC5)CC4)cc13)-c1cc3c(c(=O)n1C2)COC(=O)[C@]3(O)CC [Irinotecan]
[2]
  Diarrhoea Grade 4: 7%
  Nausea Grades 3,4: 16%
  Neutropenia Grade 4: 12%
  Vomiting Grades 3,4: 12%
[3]
  Diarrhoea Grade 4: 5%
  Nausea Grades 3,4: 16%
  Neutropenia Grade 4: 24%
  Vomiting Grades 3,4: 10%
[4]; N = 304, late diarrhoea
  Diarrhoea Grade 4: 14%**
[4]; N = 304
  Nausea Grades 3,4: 17%
  Neutropenia Grade 4: 12%
  Vomiting Grades 3,4: 12%
[5]; average across 2 studies
  Diarrhoea Grade 4: 22%*
  Nausea Grades 3,4: 12%*
  Vomiting Grades 3,4: 14%*
[5]
  Neutropenia Grade 4: 18%

## O=NN(CCCl)C(=O)NC1CCCCC1 [Lomustine]
reGBM patients [6]
  Nausea Grades 3-5: 0%
  Neutropenia Grades 3-4: 20%
  Thrombocytopenia Grades 3-4: 25%
reGBM patients [7]
  Diarrhoea Grades 3-5: 2%
  Neutropenia Grades 3-4: 3%
  Thrombocytopenia Grades 3-4: 22%

## CC[C@@]1(O)C(=O)OCc2c1cc1n(c2=O)Cc2c-1nc1ccccc1c2/C=N/OC(C)(C)C [Gimatecan]
reGBM patients [8]; Phase II trial, oral
  treatment-related toxicities of thrombocytopenia, leukopenia, and neutropenia, patients: 10-18%
reGBM patients [8]; in vivo
  PFS6: 12%
reGBM patients [8]; N = 10 High Dose
  Diarrhoea Grades 3-5: 0%
  Neutropenia Grades 3-4: 30%
  Thrombocytopenia Grades 3-4: 40%
reGBM patients [8]; N = 10 Low Dose
  Diarrhoea Grades 3-5: 0%
  Neutropenia Grades 3-4: 0%
  Thrombocytopenia Grades 3-4: 5%

## CCc1c2c(nc3ccc(O)cc13)-c1cc3c(c(=O)n1C2)COC(=O)[C@]3(O)CC [SN-38]
[9]
  ratio of the lactone AUC to total AUC: 0.51

## Etirinotecan
GBM/AA patients
  Diarrhoea Grades 3-5: 10%
BCBM patients
  Diarrhoea Grades 3-5: 10%
  Nausea Grades 3-5: 4%
  Neutropenia Grades 3-4: 10%

## CC[C@@]1(O)C(=O)OCc2c1cc1n(c2=O)Cc2cc3c(CN(C)C)c(O)ccc3nc2-1 [topotecan]
[9]
  ratio of the lactone AUC to total AUC: 0.37

## CC[C@@]1(O)C(=O)OCc2c1cc1n(c2=O)Cc2cc3ccccc3nc2-1 [camptothecin]
[10]
  sensitivity to camptothecin-induced apoptosis, S phase cells vs cells in the G1 or G2 phase: 100 to 1,000 times
